From PubChem BioAssay (NCI)
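A five-concentration, 48-hour dose response in 96-well plates underlies each endpoint, interpolated linearly between surrounding concentrations. The concentration for full growth arrest is given as TGI.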

Legend:
Assay in all cases: NCI anticancer screen, dose series, 48 h
786-0 renal = tested on: 786-0 renal
A498 renal = tested on: A498 renal
A549 NSCLC = tested on: A549 NSCLC
ACHN renal = tested on: ACHN renal
BT-549 breast = tested on: BT-549 breast
CAKI-1 renal = tested on: CAKI-1 renal
CCRF-CEM leukemia = tested on: CCRF-CEM leukemia
EKVX NSCLC = tested on: EKVX NSCLC
HCT-116 colon = tested on: HCT-116 colon
HCT-15 colon = tested on: HCT-15 colon
HL-60(TB) leukemia = tested on: HL-60(TB) leukemia
HOP-62 NSCLC = tested on: HOP-62 NSCLC
HOP-92 NSCLC = tested on: HOP-92 NSCLC
HS 578T breast = tested on: HS 578T breast
HT29 colon = tested on: HT29 colon
IGROV1 ovarian = tested on: IGROV1 ovarian
K-562 leukemia = tested on: K-562 leukemia
KM12 colon = tested on: KM12 colon
LOX IMVI melanoma = tested on: LOX IMVI melanoma
M14 melanoma = tested on: M14 melanoma
MALME-3M melanoma = tested on: MALME-3M melanoma
MDA-MB-231 breast = tested on: MDA-MB-231 breast
MDA-MB-435 = tested on: MDA-MB-435
MDA-N = tested on: MDA-N
MOLT-4 leukemia = tested on: MOLT-4 leukemia
NCI-H226 lung = tested on: NCI-H226 lung
NCI-H23 lung = tested on: NCI-H23 lung
NCI-H460 lung = tested on: NCI-H460 lung
NCI-H522 lung = tested on: NCI-H522 lung
NCI/ADR-RES ovarian = tested on: NCI/ADR-RES ovarian
OVCAR-3 ovarian = tested on: OVCAR-3 ovarian
OVCAR-4 ovarian = tested on: OVCAR-4 ovarian
OVCAR-5 ovarian = tested on: OVCAR-5 ovarian
OVCAR-8 ovarian = tested on: OVCAR-8 ovarian
PC-3 prostate = tested on: PC-3 prostate
RPMI-8226 leukemia = tested on: RPMI-8226 leukemia
RXF 393 renal = tested on: RXF 393 renal
SF-268 CNS = tested on: SF-268 CNS
SF-295 CNS = tested on: SF-295 CNS
SK-MEL-2 melanoma = tested on: SK-MEL-2 melanoma
SK-MEL-28 melanoma = tested on: SK-MEL-28 melanoma
SK-MEL-5 melanoma = tested on: SK-MEL-5 melanoma
SN12C renal = tested on: SN12C renal
SNB-19 CNS = tested on: SNB-19 CNS
SR leukemia = tested on: SR leukemia
SW-620 colon = tested on: SW-620 colon
T-47D breast = tested on: T-47D breast
TK-10 renal = tested on: TK-10 renal
U251 CNS = tested on: U251 CNS
UACC-257 melanoma = tested on: UACC-257 melanoma
UACC-62 melanoma = tested on: UACC-62 melanoma
UO-31 renal = tested on: UO-31 renal
COLO 205 colon = tested on: COLO 205 colon
DU-145 prostate = tested on: DU-145 prostate
HCC-2998 colon = tested on: HCC-2998 colon
MCF7 breast = tested on: MCF7 breast
SF-539 CNS = tested on: SF-539 CNS
SK-OV-3 ovarian = tested on: SK-OV-3 ovarian
SNB-75 CNS = tested on: SNB-75 CNS

NC(Cc1ccccc1)P(=O)(O)O (stereo unspecified)
TGI (786-0 renal): > 100 µM
TGI (A498 renal): > 100 µM
TGI (A549 NSCLC): > 100 µM
TGI (ACHN renal): > 100 µM
TGI (BT-549 breast): > 100 µM
TGI (CAKI-1 renal): > 100 µM
TGI (CCRF-CEM leukemia): > 100 µM
TGI (EKVX NSCLC): > 100 µM
TGI (HCT-116 colon): > 100 µM
TGI (HCT-15 colon): > 100 µM
TGI (HL-60(TB) leukemia): > 100 µM
TGI (HOP-62 NSCLC): > 100 µM
TGI (HOP-92 NSCLC): > 100 µM
TGI (HS 578T breast): > 100 µM
TGI (HT29 colon): > 100 µM
TGI (IGROV1 ovarian): > 100 µM
TGI (K-562 leukemia): > 100 µM
TGI (KM12 colon): > 100 µM
TGI (LOX IMVI melanoma): > 100 µM
TGI (M14 melanoma): > 100 µM
TGI (MALME-3M melanoma): > 100 µM
TGI (MDA-MB-231 breast): > 100 µM
TGI (MDA-MB-435): > 100 µM
TGI (MDA-N): > 100 µM
TGI (MOLT-4 leukemia): > 100 µM
TGI (NCI-H226 lung): > 100 µM
TGI (NCI-H23 lung): > 100 µM
TGI (NCI-H460 lung): > 100 µM
TGI (NCI-H522 lung): > 100 µM
TGI (NCI/ADR-RES ovarian): > 100 µM
TGI (OVCAR-3 ovarian): > 100 µM
TGI (OVCAR-4 ovarian): > 100 µM
TGI (OVCAR-5 ovarian): > 100 µM
TGI (OVCAR-8 ovarian): > 100 µM
TGI (PC-3 prostate): > 100 µM
TGI (RPMI-8226 leukemia): > 100 µM
TGI (RXF 393 renal): > 100 µM
TGI (SF-268 CNS): > 100 µM
TGI (SF-295 CNS): > 100 µM
TGI (SK-MEL-2 melanoma): > 100 µM
TGI (SK-MEL-28 melanoma): > 100 µM
TGI (SK-MEL-5 melanoma): > 100 µM
TGI (SN12C renal): > 100 µM
TGI (SNB-19 CNS): > 100 µM
TGI (SR leukemia): > 100 µM
TGI (SW-620 colon): > 100 µM
TGI (T-47D breast): > 100 µM
TGI (TK-10 renal): > 100 µM
TGI (U251 CNS): > 100 µM
TGI (UACC-257 melanoma): > 100 µM
TGI (UACC-62 melanoma): > 100 µM
TGI (UO-31 renal): > 100 µM

Fc1cccc(C2SCC3=Nc4ccccc4CN32)c1 (stereo unspecified)
TGI (786-0 renal): > 100 µM
TGI (A498 renal): > 100 µM
TGI (A549 NSCLC): > 100 µM
TGI (ACHN renal): > 100 µM
TGI (BT-549 breast): > 100 µM
TGI (CAKI-1 renal): > 100 µM
TGI (CCRF-CEM leukemia): > 100 µM
TGI (COLO 205 colon): > 100 µM
TGI (DU-145 prostate): > 100 µM
TGI (EKVX NSCLC): > 100 µM
TGI (HCC-2998 colon): > 100 µM
TGI (HCT-116 colon): 88.6 µM
TGI (HCT-15 colon): > 100 µM
TGI (HL-60(TB) leukemia): > 100 µM
TGI (HOP-62 NSCLC): > 100 µM
TGI (HOP-92 NSCLC): > 100 µM
TGI (HT29 colon): 74.3 µM
TGI (K-562 leukemia): > 100 µM
TGI (KM12 colon): > 100 µM
TGI (LOX IMVI melanoma): > 100 µM
TGI (M14 melanoma): > 100 µM
TGI (MCF7 breast): > 100 µM
TGI (MDA-MB-231 breast): > 100 µM
TGI (MDA-MB-435): > 100 µM
TGI (MDA-N): > 100 µM
TGI (MOLT-4 leukemia): > 100 µM
TGI (NCI-H23 lung): > 100 µM
TGI (NCI-H460 lung): > 100 µM
TGI (NCI/ADR-RES ovarian): 35.9 µM
TGI (OVCAR-3 ovarian): 70.5 µM
TGI (OVCAR-4 ovarian): > 100 µM
TGI (OVCAR-5 ovarian): > 100 µM
TGI (OVCAR-8 ovarian): > 100 µM
TGI (PC-3 prostate): > 100 µM
TGI (RPMI-8226 leukemia): > 100 µM
TGI (RXF 393 renal): > 100 µM
TGI (SF-268 CNS): > 100 µM
TGI (SF-295 CNS): > 100 µM
TGI (SF-539 CNS): > 100 µM
TGI (SK-MEL-2 melanoma): 49.7 µM
TGI (SK-MEL-28 melanoma): > 100 µM
TGI (SK-MEL-5 melanoma): 41.1 µM
TGI (SK-OV-3 ovarian): > 100 µM
TGI (SN12C renal): > 100 µM
TGI (SNB-19 CNS): > 100 µM
TGI (SNB-75 CNS): > 100 µM
TGI (SR leukemia): > 100 µM
TGI (SW-620 colon): > 100 µM
TGI (T-47D breast): > 100 µM
TGI (TK-10 renal): > 100 µM
TGI (U251 CNS): > 100 µM
TGI (UACC-257 melanoma): > 100 µM
TGI (UACC-62 melanoma): > 100 µM
TGI (UO-31 renal): > 100 µM
